We go through one molecule from US20240208978A1, “IDH MUTANT INHIBITOR AND USE THEREOF” (WIGEN BIOMEDICINE TECHNOLOGY (SHANGHAI) CO., LTD., priority 2021, published 2024).

The target of series [1] is T1, IDH1 R132C (Homo sapiens, UniProt O75874, R132C).
T1 construct: endogenous in cells; host or cells: HT1080
The series is described as follows: Detection of 2-HG in supernatant of HT1080 cells carrying IDH1 R132C. Format: cell-based. To be noted: 72 h, LC-MS-MS. The protocol: (§1) U87MG cells overexpressing the mIDH1 R132H mutation or HT1080 cells carrying IDH1 R132C were seeded in a 48-well plate and a 96-well plate at 50,000 cells/well and 10,000 cells/well, respectively. After the cells were incubated overnight for adhesion, the supernatants were removed. The cell culture media containing serially diluted compounds were added, and the cells were incubated for 72 h. After 72 h, the culture media were collected and diluted 10-fold and 20-fold with water, respectively. Acetonitrile was added to extract the metabolites. The 2-HG content in the culture media was analyzed by LC-MS-MS. The percentage inhibition and IC50 of the compounds on 2-HG in the supernatant were calculated as compared with the control group.

Series [2] is described as follows: Stability test of human liver microsomes. Format: in vitro ADME. The conditions noted are these: 1 μM compound, 500 μg/ml human liver microsomes, NADPH regeneration system, 37° C.; read-out: Liver microsomal stability T1/2, Human. The method, then: (§2) After the 1 μM compound was incubated with 500 μg/ml of human or mouse liver microsomes and a NADPH regeneration system at 37° C. for different times, respectively, LC-MS-MS was used to analyze the remaining amount of the compound and calculate T1/2.

The nature of series [3]: Stability test of mouse liver microsomes. The conditions noted are these: 1 μM compound, 500 μg/ml mouse liver microsomes, NADPH regeneration system, 37° C.; read-out: Liver microsomal stability T1/2, Mouse. Format: in vitro ADME. The protocol: as §2
For series [4], the target named is T2, mIDH1 R132H (Homo sapiens, UniProt O75874, R132H).
T2 construct: expressed in transfected cells; host or cells: U87MG
Briefly: Detection of 2-HG in supernatant of U87-IDH1 R132H cells. Format: cell-based. To be noted: U-87 MG, 72 h, U87MG cells overexpressing mIDH1 R132H, LC-MS-MS. The method, then:
as §1

A value given as a limit tells only on which side of the number the result lay.

T2 sequence (O75874 whole entry R132H): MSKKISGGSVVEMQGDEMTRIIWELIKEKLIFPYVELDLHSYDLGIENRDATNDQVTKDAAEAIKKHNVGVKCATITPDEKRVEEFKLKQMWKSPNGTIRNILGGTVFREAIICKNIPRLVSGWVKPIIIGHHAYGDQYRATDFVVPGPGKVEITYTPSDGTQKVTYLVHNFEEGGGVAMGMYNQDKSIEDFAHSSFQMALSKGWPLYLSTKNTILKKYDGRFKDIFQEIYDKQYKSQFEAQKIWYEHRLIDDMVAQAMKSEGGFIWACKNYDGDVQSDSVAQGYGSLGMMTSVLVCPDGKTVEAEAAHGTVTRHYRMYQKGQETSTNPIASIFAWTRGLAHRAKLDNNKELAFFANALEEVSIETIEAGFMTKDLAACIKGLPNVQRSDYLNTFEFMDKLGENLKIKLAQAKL
T1 sequence (O75874 whole entry R132C): as the sequence (O75874 whole entry R132H) above, with H132C counted along it

Broadly, the IC50 is the concentration that inhibits the measured activity by half. The low end stands for higher potency, the high end for lower potency. As a reminder, the inhibition is the relative decrease from the control value, in per cent. `C=CC(=O)N1CCN([C@@H](CC2CC2)c2ccc([C@H](C)Nc3ncc4c(n3)N(CC)C(=O)OC4)cc2)CC1` [LY-3410738, reference compound] displayed an IC50 in series [1] of 1.9 nM. Moreover, the values for the half-life at 1 μM in series [2] and in series [3] were 1.8 min and 1.6 min, respectively. Besides, in series [4] (1 nM compound, read-out: Inhibition rate on 2-HG in the supernatant of U87-IDH R132H cells, 1 nM), the inhibition at 0.001 µM fell in the range of 30 to 60%. Further, the inhibition at 0.01 µM in series [4] (10 nM compound, read-out: Inhibition rate on 2-HG in the supernatant of U87-IDH R132H cells, 10 nM) is > 90%. Further, the inhibition at 0.1 µM in series [4] (100 nM compound, read-out: Inhibition rate on 2-HG in the supernatant of U87-IDH R132H cells, 100 nM) was > 90%.
